Assay results from publication PMC1920558 (PLoS ONE, 2007).
“Also recorded” adds a separate entry of the source. Where a SMILES comes first, the peptide text is derived from it.

Experiments:
IDE [1] = target: T1, IDE (Rattus norvegicus, UniProt P35559); experiment: IDE digestion, products by RP-HPLC and MS; settings: 37°C
T1 sequence (P35559 1-1019): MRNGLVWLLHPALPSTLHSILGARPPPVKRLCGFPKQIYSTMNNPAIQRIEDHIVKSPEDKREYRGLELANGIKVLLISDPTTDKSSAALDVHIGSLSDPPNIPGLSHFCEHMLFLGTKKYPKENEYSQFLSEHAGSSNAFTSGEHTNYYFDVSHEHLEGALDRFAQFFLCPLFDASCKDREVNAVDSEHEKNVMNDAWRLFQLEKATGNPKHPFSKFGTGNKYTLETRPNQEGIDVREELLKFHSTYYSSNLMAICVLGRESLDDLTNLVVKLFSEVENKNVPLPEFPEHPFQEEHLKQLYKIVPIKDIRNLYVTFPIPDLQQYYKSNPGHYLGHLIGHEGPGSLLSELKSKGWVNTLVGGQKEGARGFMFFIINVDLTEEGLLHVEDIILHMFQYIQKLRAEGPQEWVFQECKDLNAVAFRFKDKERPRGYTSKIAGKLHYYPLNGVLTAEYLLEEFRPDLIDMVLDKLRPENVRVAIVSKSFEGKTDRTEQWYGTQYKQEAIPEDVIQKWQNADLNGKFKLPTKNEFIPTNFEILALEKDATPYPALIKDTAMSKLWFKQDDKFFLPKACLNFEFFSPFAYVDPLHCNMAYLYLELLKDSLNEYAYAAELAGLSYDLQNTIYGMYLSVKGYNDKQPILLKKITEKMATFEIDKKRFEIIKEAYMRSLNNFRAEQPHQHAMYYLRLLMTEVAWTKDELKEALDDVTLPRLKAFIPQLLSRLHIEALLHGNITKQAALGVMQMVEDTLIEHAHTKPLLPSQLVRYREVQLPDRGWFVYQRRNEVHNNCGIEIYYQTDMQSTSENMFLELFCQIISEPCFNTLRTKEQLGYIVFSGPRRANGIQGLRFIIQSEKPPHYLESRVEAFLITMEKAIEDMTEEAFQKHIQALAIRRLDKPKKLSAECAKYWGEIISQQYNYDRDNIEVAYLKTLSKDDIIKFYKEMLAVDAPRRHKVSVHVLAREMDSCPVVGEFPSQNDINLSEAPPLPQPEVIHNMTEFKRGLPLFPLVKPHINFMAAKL
Description: (§1) 16 µM T40 was incubated with or without 22 nM IDE (37°C) and the reaction stopped as indicated. (B) Specificity of IDE activity. […] For (A) and (B), digestion products were resolved (10% Tris-Tricine SDS-PAGE), electro-blotted onto nitrocellulose and probed with KD69 (specific for the T40). Marker proteins are indicated. Arrows indicate the positions of T40 monomers and dimers. (C) 60 µM T40 was incubated with or without 50 nM IDE (37°C) and products separated by RP-HPLC (peaks annotated a–h). (D) Positions of IDE initial cleavages (arrows) within T40 (2 min digestion). (E) Identity of the major peptides (italics) and of CSR species in peaks a–h, analyzed by MS.
(A) Positions of IDE initial cleavages (arrows) within AChE586-599. […] 63 µM AChE586-599 was incubated with or without 45 nM IDE (A) or 273 nM IDE (B)(37°C, 30 min) and RP-HPLC peaks analyzed by MS. […] AChE586-599 oligomers (16 µM) cross-linked by photo-induced cross-linking were incubated with or without 16.3 nM IDE (37°C). Digestion products were resolved (16.5% Tris-Tricine SDS-PAGE), electro-blotted onto nitrocellulose and probed with Mab 105A (specific for AChE586-599 in β-sheet conformation). Marker proteins are indicated.
To identify degradation products, 60 µM T40 was incubated with 50 nM IDE; 63 µM AChE586-599 with 45 nM or 273 nM IDE; and 40 µM AChE586-599 with 772 nM NEP and separated by reverse phase-HPLC (RP-HPLC). Peaks were collected and identities determined on a Q-TOF Micro mass spectrometer (Micromass, UK) with MassLynx 4.0 and MaxEnt 3 software. Lyophilized HPLC separated T40/IDE products were used for surface tension and seeding experiments.
Reaction products were resolved by RP-HPLC with a Sephasil C4 column (5 µm, 4.6×250 mm; Amersham Biosciences, UK) using a 5–95% linear gradient of acetonitrile in 0.1% trifluoroacetic acid over 25 min (flow rate 1 ml/min). The eluent was monitored by UV absorption at 280 nm.

NEP = NEP digestion, products by RP-HPLC and MS; type: in vitro ADME; settings: 37°C; for effect of NEP exposure on peptide level: 60 µM peptide, 1.2 µM NEP, 4 hours, 100 mM Tris-HCl pH 7.4, 1% Triton X-100, RP-HPLC
Description: Figure 4 NEP preferentially degrades monomeric forms of AChE586-599. (A) 60 µM of either substance P or T40 were incubated with or without 1.2 µM NEP (37°C, 4 hours) and the digestion mixture subjected to RP-HPLC. (B) Positions of NEP initial cleavages (arrows) within AChE586-599. (C) Cleavage map after complete NEP digestion of AChE586-599. 40 µM AChE586-599 was incubated with 772 nM NEP (30 min (B) or 4 hours (C), 37°C) and RP-HPLC peaks analyzed by MS. (D) NEP degrades AChE586-599 oligomers. […] Digestion products were analyzed as described in Figure 3C. Arrows indicate two digested AChE586-599 oligomers. (E) T40/IDE products are substrates for NEP. 60 µM T40 was incubated with 50 nM IDE (37°C, 30 min) and products separated by RP-HPLC. Peaks e–f (see Figure. 2C) were lyophilized, incubated with 772 nM NEP (37°C, 2 hours) and subjected to RP-HPLC.
60 µM substance P or T40 were incubated with or without 1.2 µM NEP (4 hours), stopped (0.5% trifluoroacetic acid) and subjected to RP-HPLC.

IDE [2] = target: T1, IDE; experiment: IDE digestion of T40, SDS-PAGE and western blot with KD69; settings: 16 µM T40, 22 nM IDE, 37°C
Description: as §1
(§2) IDE and NEP (Merck, UK) digestions were at 37°C in 100 mM KHPO4/KH2PO4 buffer pH 7.5 (buffer A) or 100 mM Tris-HCl pH 7.4, 1% Triton X-100 (buffer B) respectively. 16 µM T40 was incubated with 22 nM IDE or 309 nM NEP, and 16 or 14.8 µM AChE586-599 oligomers with 16.3 nM IDE or 285 nM NEP. Reactions were stopped by boiling in a Laemmli's dissociation buffer with 100 mM DTT and subjected to SDS-PAGE (10% Tris-Tricine for T40 and 16.5% Tris-Tricine for AChE586-599 oligomers). […]

NEP (neprilysin), 772 nM = experiment: NEP in 100 mM Tris-HCl pH 7.4, 1% Triton X-100 (buffer B); settings: 37°C, up to 4 hours
IDE (insulysin), 45 nM = experiment: IDE in 100 mM KHPO4/KH2PO4 buffer pH 7.5 (buffer A); settings: 37°C, up to 30 min
IDE (insulysin), 50 nM = experiment: as above; settings: 37°C, up to 2 hours
NEP (neprilysin), 1.2 µM = experiment: NEP in 100 mM Tris-HCl pH 7.4, 1% Triton X-100 (buffer B); settings: 37°C, up to 4 hours
IDE [3] = target: T1, IDE; experiment: Specificity/inhibition of T40-degrading activity of IDE; type: biochemical; set-up: purchased Merck, UK; settings: 16 µM T40, 22 nM IDE, 37°C, 90 min
Description: as §1, §2

Compound: CSCC[C@H](NC(=O)[C@H](Cc1ccc(O)cc1)NC(=O)[C@H](CO)NC(=O)[C@H](CO)NC(=O)[C@H](Cc1c[nH]c2ccccc12)NC(=O)[C@H](CCCNC(=N)N)NC(=O)[C@H](Cc1c[nH]cn1)NC(=O)[C@H](Cc1ccccc1)NC(=O)[C@H](CCC(=O)O)NC(=O)[C@H](C)N)C(=O)N[C@H](C(=O)N[C@@H](Cc1c[nH]cn1)C(=O)N[C@@H](Cc1c[nH]c2ccccc12)C(=O)N[C@@H](CCCCN)C(=O)O)C(C)C [AChE586-599] (H-AEFHRWSSYMVHWK-OH)
- degradation of AChE586-599 by IDE (IDE [1]; 63 µM AChE586-599, 45 nM IDE, 30 min, buffer pH 7.5, RP-HPLC/MS): degraded
- extent of AChE586-599 digestion by IDE (IDE [1]; 63 µM AChE586-599, 273 nM IDE, 30 min, RP-HPLC/MS): complete IDE digestion
- time for complete digestion of AChE586-599 by NEP (NEP; 40 µM AChE586-599, 772 nM NEP, Tris-HCl pH 7.4, 1% Triton X-100, RP-HPLC/MS): ≤ 4 h

Compound: CSCC[C@H](NC(=O)[C@H](Cc1ccc(O)cc1)NC(=O)[C@H](CO)NC(=O)[C@H](CO)NC(=O)[C@H](Cc1c[nH]c2ccccc12)NC(=O)[C@H](CCCNC(=N)N)NC(=O)[C@H](Cc1c[nH]cn1)NC(=O)[C@H](Cc1ccccc1)NC(=O)[C@H](CCC(=O)O)NC(=O)[C@H](C)NC(=O)[C@H](CCCCN)NC(=O)[C@H](Cc1c[nH]c2ccccc12)NC(=O)[C@H](CCC(N)=O)NC(=O)[C@H](CCCNC(=N)N)NC(=O)[C@H](CCC(=O)O)NC(=O)[C@H](C)NC(=O)[C@H](CCC(=O)O)NC(=O)[C@H](CC(=O)O)NC(=O)[C@H](CC(C)C)NC(=O)[C@@H](NC(=O)[C@@H](N)CC(=O)O)[C@@H](C)O)C(=O)N[C@H](C(=O)N[C@@H](Cc1c[nH]cn1)C(=O)N[C@@H](Cc1c[nH]c2ccccc12)C(=O)N[C@@H](CCCCN)C(=O)N[C@@H](CC(N)=O)C(=O)N[C@@H](CCC(N)=O)C(=O)N[C@@H](Cc1ccccc1)C(=O)N[C@@H](CC(=O)O)C(=O)N[C@@H](Cc1c[nH]cn1)C(=O)N[C@@H](Cc1ccc(O)cc1)C(=O)N[C@@H](CO)C(=O)N[C@@H](CCCCN)C(=O)N[C@@H](CCC(N)=O)C(=O)N[C@@H](CC(=O)O)C(=O)N[C@@H](CCCNC(=N)N)C(=O)N[C@@H](CS)C(=O)N[C@@H](CO)C(=O)N[C@@H](CC(=O)O)C(=O)N[C@@H](CC(C)C)C(=O)O)C(C)C [T40] (H-DTLDEAERQWKAEFHRWSSYMVHWKNQFDHYSKQDRCSDL-OH)
- incubation time for complete disappearance of monomeric T40 with IDE (IDE [2]; 100 mM KHPO4/KH2PO4 buffer pH 7.5, western blot KD69): ≤ 80 min
- fate of dimeric T40 with IDE (IDE [2]; buffer pH 7.5, up to 80 min, western blot KD69): remained undigested
- extent of T40 digestion by IDE at 30 min (IDE [1]; 60 µM T40, 50 nM IDE, buffer pH 7.5, RP-HPLC C4, UV 280 nm): near complete digestion
- effect of NEP exposure on peptide level (NEP): remained unchanged

Compound: AEFHRWSSYMVHWK
- cleaved bond (NEP (neprilysin), 772 nM): Ser8-Tyr9, first_seen, 30 min; also recorded: His12-Trp13, first_seen, 30 min; also recorded: H4-R5, first_seen, 30 min
- cleaved bond (IDE (insulysin), 45 nM): Ser8-Tyr9, first_seen, 30 min; also recorded: His12-Trp13, first_seen, 30 min

Compound: DTLDEAERQWKAEFHRWSSYMVHWKNQFDHYSKQDRCSDL
- cleaved bond (IDE (insulysin), 50 nM): Phe14-His15, first_seen, 2 min; also recorded: Ser19-Tyr20, first_seen, 2 min; also recorded: Trp24-Lys25, first_seen, 2 min
- not cleaved (NEP (neprilysin), 1.2 µM): levels remained unchanged after exposure to NEP (4 hours)

Compound: insulin
- concentration giving complete inhibition of IDE degradation of T40 (IDE [3]; western blot, equimolar to T40): 16 µM
- inhibition of IDE degradation of T40 (IDE [3]; insulin or IgG 2–16 µM, 1,10-phenanthroline 1 and 10 mM): dose dependent inhibition

Compound: substance P [reference compound]
- effect of NEP exposure on peptide level (NEP): degradation
